The results in this text go back to patent US20260374773A1, “MULTI-CYCLIC IRAK AND FLT3 INHIBITING COMPOUNDS AND USES THEREOF” (CHILDREN'S HOSPITAL MEDICAL CENTER, priority 2022, published 2026).

The target in one test is T1, FLT3 R834Q (Homo sapiens, UniProt P36888, R834Q).
T1 sequence (P36888 27-993 R834Q): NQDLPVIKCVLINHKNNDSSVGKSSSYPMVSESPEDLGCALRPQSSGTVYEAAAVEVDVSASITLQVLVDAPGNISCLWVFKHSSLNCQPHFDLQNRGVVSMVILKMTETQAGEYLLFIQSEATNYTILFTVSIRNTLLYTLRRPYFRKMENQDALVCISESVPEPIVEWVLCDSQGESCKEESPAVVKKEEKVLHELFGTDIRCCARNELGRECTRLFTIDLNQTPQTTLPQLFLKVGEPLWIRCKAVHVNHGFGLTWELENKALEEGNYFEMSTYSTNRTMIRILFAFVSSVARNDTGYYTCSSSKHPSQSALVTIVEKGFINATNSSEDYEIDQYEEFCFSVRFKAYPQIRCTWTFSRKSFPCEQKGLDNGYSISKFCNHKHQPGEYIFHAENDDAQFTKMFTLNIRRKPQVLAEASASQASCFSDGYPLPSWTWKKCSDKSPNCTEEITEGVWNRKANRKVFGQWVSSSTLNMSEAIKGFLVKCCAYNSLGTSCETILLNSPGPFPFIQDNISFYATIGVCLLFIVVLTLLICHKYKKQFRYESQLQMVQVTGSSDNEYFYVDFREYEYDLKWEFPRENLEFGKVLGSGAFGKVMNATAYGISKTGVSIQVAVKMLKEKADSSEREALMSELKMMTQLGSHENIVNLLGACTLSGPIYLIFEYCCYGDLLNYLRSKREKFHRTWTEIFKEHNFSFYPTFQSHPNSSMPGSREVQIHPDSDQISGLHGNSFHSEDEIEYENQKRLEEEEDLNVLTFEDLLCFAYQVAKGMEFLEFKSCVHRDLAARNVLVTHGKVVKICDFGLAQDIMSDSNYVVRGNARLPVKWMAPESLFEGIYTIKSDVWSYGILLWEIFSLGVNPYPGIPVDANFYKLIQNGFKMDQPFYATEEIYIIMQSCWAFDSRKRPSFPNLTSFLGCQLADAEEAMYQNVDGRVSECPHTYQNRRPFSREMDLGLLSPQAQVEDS
Kind of test: DiscoverX KINOMEscan active site-directed competition binding, FLT3 R834Q. The conditions noted are these: Table 13; no ATP.
Text: (§1) Kinase binding data were obtained for various exemplary compounds prepared according to Examples 1-8 using the DiscoverX KINOMEscan® active site-directed competition binding site-directed assay protocol described below. […] As a result, the data report thermodynamic interaction affinities (Kd values), rather than IC50 values that are dependent on ATP concentrations. The assay uses a DNA-tagged version of the protein kinase, and an immobilized ligand bound to a solid support. Compounds that directly or indirectly prevent kinase binding to the immobilized ligand reduce the amount of kinase captured on the solid support, which is detected using an ultra-sensitive qPCR method. Affinity constants reported from the assay have been reported to be independent of the immobilized ligand used that is coupled to the solid support (See supplemental information in Fabian, M. A. et. al., (2005) Nat. Biotechnol. 23, 329-336; Wodicka, L. M. et. al., (2010) Chem. Biol. 17, 1241-1249.)
Kinase-tagged T7 phage strains were prepared in an E. coli host derived from the BL21 strain. E. coli were grown to log-phase and infected with T7 phage and incubated with shaking at 32 °C until lysis. The lysates were centrifuged and filtered to remove cell debris. The remaining kinases were produced in HEK-293 cells and subsequently tagged with DNA for qPCR detection. Streptavidin-coated magnetic beads were treated with biotinylated small molecule ligands for 30 minutes at room temperature to generate affinity resins for kinase assays. The liganded beads were blocked with excess biotin and washed with blocking buffer (SeaBlock (Pierce), 1% BSA, 0.05% Tween 20, 1 mM DTT) to remove unbound ligand and to reduce non-specific binding. […] Test compounds were prepared as 111x stocks in 100% DMSO. Kds were determined using an 11-point 3-fold compound dilution series with three DMSO control points. All compounds for Kd measurements are distributed by acoustic transfer (non-contact dispensing) in 100% DMSO. The compounds were then diluted directly into the assays such that the final concentration of DMSO was 0.9%. All reactions were performed in polypropylene 384-well plates. Each was a final volume of 0.02 mL. The assay plates were incubated at room temperature with shaking for 1 hour and the affinity beads were washed with wash buffer (1×PBS, 0.05% Tween 20). The beads were then re-suspended in elution buffer (1×PBS, 0.05% Tween 20, 0.5 μM nonbiotinylated affinity ligand) and incubated at room temperature with shaking for 30 minutes. The kinase concentration in the eluates was measured by qPCR. Binding constants (Kds) were calculated with a standard dose-response curve using the Hill equation. The Hill Slope was set to −1. Curves were fitted using a non-linear least square fit with the Levenberg-Marquardt algorithm.
as §1, with “9-12” for “1-8”
Kinase-tagged T7 phage strains were prepared in an E. coli host derived from the BL21 strain. […]
On to `COc1cn2ncc(-c3nc(N[C@H]4CNCC[C@@H]4F)c(C#N)cc3F)c2nc1C1CC1` [Compound 7, 6-(5-cyclopropyl-6-methoxypyrazolo[1,5-a]pyrimidin-3-yl)-5-fluoro-2-(((3S,4S)-4-fluoropiperidin-3-yl)amino)nicotinonitrile], for which the Kd (commonly the equilibrium constant for the complex coming apart) was < 0.17 nM.
Still for that read-out and setting: under `COc1cn2ncc(-c3nc(N[C@H]4CNCC[C@@H]4F)c(C#N)cc3F)c2nc1C(C)(C)O` [Compound 10, 5-fluoro-2-(((3S,4S)-4-fluoropiperidin-3-yl)amino)-6-(5-(2-hydroxypropan-2-yl)-6-methoxypyrazolo[1,5-a]pyrimidin-3-yl)nicotinonitrile] stands 2.2 nM; under `COc1cn2ncc(-c3nc(N[C@H]4CNCC[C@@H]4F)c(F)cc3F)c2nc1C(C)(C)O` [Compound 13, 2-(3-(3,5-difluoro-6-(((3S,4S)-4-fluoropiperidin-3-yl)amino)pyridin-2-yl)-6-methoxypyrazolo[1,5-a]pyrimidin-5-yl)propan-2-ol], 3.3 nM.

The same test, now with this note: Table 19; no ATP.
The compound `COc1cn2ncc(-c3nc(N[C@H]4CNCC[C@@H]4F)ncc3F)c2nc1C(C)(C)O` [Compound 6a, 2-(3-(5-fluoro-2-(((3S,4S)-4-fluoropiperidin-3-yl)amino)pyrimidin-4-yl)-6-methoxypyrazolo[1,5-a]pyrimidin-5-yl)propan-2-ol] displayed a Kd of 3.8 nM.
Same read-out and setting: the same measure for `COc1cn2ncc(-c3ccnc(N[C@H]4CNCC[C@@H]4F)n3)c2nc1C1CC1` [Compound 7a, 4-(5-cyclopropyl-6-methoxypyrazolo[1,5-a]pyrimidin-3-yl)-N-((3S,4S)-4-fluoropiperidin-3-yl)pyrimidin-2-amine]: 0.43 nM.
On the same count and under the same terms, the same measure for `COc1cn2ncc(-c3cncc(N[C@H]4CNCC[C@@H]4F)n3)c2nc1C1CC1` [Compound 12a, 6-(5-cyclopropyl-6-methoxypyrazolo[1,5-a]pyrimidin-3-yl)-N-((3S,4S)-4-fluoropiperidin-3-yl)pyrazin-2-amine]: 0.35 nM.
Same read-out and setting: under `COc1cn2ncc(-c3nc(N[C@@H]4CCCNC4)ncc3F)c2nc1C1CC1` [Compound 14a, (R)-4-(5-cyclopropyl-6-methoxypyrazolo[1,5-a]pyrimidin-3-yl)-5-fluoro-N-(piperidin-3-yl)pyrimidin-2-amine] stands < 0.17 nM.
As to `COc1cn2ncc(-c3nc(N[C@H]4CNCC[C@@H]4F)ncc3F)c2nc1C1CC1` [Compound 15a, 4-(5-cyclopropyl-6-methoxypyrazolo[1,5-a]pyrimidin-3-yl)-5-fluoro-N-((3S,4S)-4-fluoropiperidin-3-yl)pyrimidin-2-amine], the Kd was < 0.17 nM.
